The results in this text go back to patent publication US4764506A, “N^6 -(benzothien-3-yl)ethyl adenosine; N^6 -(benzothien-3-yl)ethyl adenosine, S-oxide; and N^6 -(benzothien-3-yl)ethyl S,S-dioxide adenosine” (Warner-Lambert Company, priority 1986, dated 1988).

The target in one data set is T1, adenosine A2 receptor (Rattus norvegicus, UniProt P30543).
T1 construct: Brains were thawed and then kept on ice while the striata were dissected out; tissue Pel-Freez (Rogers, Ark.); host or cells: rat striatum, membranes (mixed sex Sprague-Dawley)
T1 sequence (P30543 whole entry): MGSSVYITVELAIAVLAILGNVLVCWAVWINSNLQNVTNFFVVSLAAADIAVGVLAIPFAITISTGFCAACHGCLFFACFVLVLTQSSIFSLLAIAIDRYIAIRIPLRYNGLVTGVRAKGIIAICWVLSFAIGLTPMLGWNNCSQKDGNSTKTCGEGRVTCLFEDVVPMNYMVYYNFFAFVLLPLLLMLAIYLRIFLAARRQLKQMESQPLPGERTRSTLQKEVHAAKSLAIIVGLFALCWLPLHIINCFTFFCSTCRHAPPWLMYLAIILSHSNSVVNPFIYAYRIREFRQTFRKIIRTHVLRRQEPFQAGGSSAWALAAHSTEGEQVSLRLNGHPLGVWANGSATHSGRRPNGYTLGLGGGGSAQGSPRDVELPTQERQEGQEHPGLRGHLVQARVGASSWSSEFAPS
Description: Adenosine Receptor Binding--A2 Receptor Affinity (RBA2), [3H]NECA displacement, rat striatal membranes. Also noted: species or system rat (Sprague-Dawley). Particulars: 4 nM [3H]NECA, 50 nM N6-cyclopentyladenosine, rat striatum, 25° C., read-out: RBA-2. As to the method: Brains from 200-500 g mixed sex Sprague-Dawley rats were purchased from Pel-Freez (Rogers, Ark.). Fresh brains from male Long-Evans hooded rats (Blue Spruce Farms, Altamont, N.Y.) gave essentially identical results. Brains were thawed and then kept on ice while the striata were dissected out. Striata were disrupted in 10 vol of ice-cold 50 mM Tris.HCl (pH 7.7 at 25° C., pH 8.26 at 5° C.) (Tris) for 30 seconds in a Polytron PT-10 (Brinkmann) at setting 5. The suspension was centrifuged at 50,000 xg for ten minutes, the supernatant discarded, the pellet resuspended in 10 vol ice-cold Tris as above, recentrifuged, resuspended at 1 g/5 ml, and stored in plastic vials at -70° C. (stable for at least six months). When needed, tissue was thawed at room temperature, disrupted in a Polytron, and kept on ice until used.
All incubations were for 60 minutes at 25° C. in 12×75 mm glass tubes containing 1 ml Tris with 5 mg original tissue weight of rat weight of rat striatal membranes, 4 nM [^3 H]-N-ethyl adenosine-5'-carboxamide ([^3 H]NECA), 50 nM N^6 -cyclopentyladenosine (to eliminate A1 receptor binding), 10 mM MgCl2, 0.1 units/ml of adenosine deaminase and 1% dimethylsulfoxide. N^6 -Cyclopentyladenosine was dissolved at 10 mM in 0.02N HCl and diluted in Tris. Stock solutions and dilutions of N^6 -cyclopentyladenosine could be stored at -20° C. for several months. Test compounds were dissolved at 10 mM in dimethylsulfoxide on the same day as the experiment, and diluted in dimethylsulfoxide to 100× the final incubation concentration. Control incubations received an equal volume (10 μl) of dimethylsulfoxide; the resulting concentration of dimethylsulfoxide had no effect on binding. [^3 H]NECA was diluted to 40 nM in Tris. The membrane suspension (5 mg/0.79 ml) contained sufficient MgCl2 and adenosine deaminase to give 10 mM and 0.1 units/ml, respectively, final concentration in the incubation. […]
Incubations were terminated by filtration through 2.4 cm GF/B filters under reduced pressure. […] Filters were put in scintillation vials, 8 ml of Formula 947 scintillation fluid added, and the vials left overnight, shaken, and counted in a liquid scintillation counter at 40% efficiency.
Nonspecific binding was defined as binding in the presence of 100 μM N^6 -cyclopentyladenosine, and specific binding was defined as total binding minus nonspecific binding. The IC50 was calculated by weighted nonlinear least squares curve-fitting to the mass-action equation. […]
Weighting factors were calculated under the assumption that the standard deviation was proportional to the predicted value of Y. Nonspecific binding was treated as a very large (infinite) concentration of drug in the computer analysis.

Another data set deals with T2, adenosine A1 receptor (Rattus norvegicus, UniProt P25099).
T2 construct: Whole brain minus cerebellum and brainstem from male Long Evans rats; from tissue; host or cells: rat whole brain minus cerebellum and brainstem, membranes (male Long Evans)
T2 sequence (P25099 1-326): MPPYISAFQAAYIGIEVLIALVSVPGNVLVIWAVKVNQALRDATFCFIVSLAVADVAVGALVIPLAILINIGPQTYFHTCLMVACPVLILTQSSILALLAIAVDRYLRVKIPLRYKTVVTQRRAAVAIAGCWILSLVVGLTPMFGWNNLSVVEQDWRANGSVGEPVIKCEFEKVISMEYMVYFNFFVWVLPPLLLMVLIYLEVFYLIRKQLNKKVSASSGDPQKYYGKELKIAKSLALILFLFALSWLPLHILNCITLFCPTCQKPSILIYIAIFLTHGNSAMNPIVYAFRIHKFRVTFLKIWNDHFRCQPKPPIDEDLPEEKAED
Description: Adenosine Receptor Binding--A1 Receptor Affinity (RBA1), [3H]-CHA displacement, rat whole brain membranes. Particulars: 1.0 nM [3H]-CHA, pH 7.7, 25° C., read-out: RBA-1. The arrangement: species or system rat (Long Evans). The procedure: Whole brain minus cerebellum and brainstem from male Long Evans rats (150-200 g) was homogenized in 30 volumes of ice-cold 0.05 M Tris-HCl buffer pH 7.7 using a Brinkman Polytron PT-10, (setting number 6 for 20 seconds) and centrifuged for ten minutes at 20,000×g (Sorvall RC-2), 4° C. The supernatant was discarded, and the pellet was resuspended and centrifuged as before. The pellet was resuspended in 20 ml Tris-HCl buffer containing two International Units/ml of adenosine deaminase (Sigma type III from calf intestinal mucosa), incubated at 37° C. for 30 minutes, then subsequently at 0° C. for ten minutes. The homogenate was again centrifuged, and the final pellet was resuspended in ice-cold 0.05 M Tris-HCl buffer pH 7.7 to a concentration of 20 mg/ml original wet tissue weight and used immediately.
Tissue homogenate (10 mg/ml) was incubated in 0.05 M Tris-HCl buffer pH 7.7 containing 1.0 nM [^3 H]-N^6 -cyclohexyladenosine (^3 H]-CHA) with or without test agents in triplicate for one hour at 25° C. Incubation volume was 2 ml. Unbound [^3 H]-CHA was separated by rapid filtration under reduced pressure through Whatman glass fiber (GF/B) filters. The filters were rinsed three times with 5 ml of ice cold 0.05 M Tris-HCl buffer pH 7.7. The radio-labeled ligand retained on the filter was measured by liquid scintillation spectrophotometry after shaking the filters for one hour or longer on a mechanical shaker in 10 ml of Beckman Ready-Solv HP scintillation cocktail.
Nonspecific binding was defined as the binding which occurred in the presence of 1 mM theophylline. The concentration of test agent which inhibited 50% of the specific binding (IC50) was determined by nonlinear computer curve fit. The Scatchard plot was calculated by linear regression of the line obtained by plotting the amount of radioligand bound [formula] Since the amount of radioligand bound was a small fraction of the total amount added, free radioligand was defined as the concentration (nM) of radioligand added to the incubation mixture. The Hill coefficient was calculated by linear regression of the line obtained by plotting the log of the bound radioligand vs the log of the [formula] The maximal number of binding sites (Bmax) was calculated from the Scatchard plot.

Data set [1] is described as follows: Mouse Activity and Screen Test Procedure (MAST): screen test (mice falling off inverted screen). Format: in vivo, mouse (Swiss-Webster, male). Particulars: IP. An excerpt: (§1) The compounds of the invention are new chemical substances which are useful as pharmaceutical agents for the treatment of psychoses. The antipsychotic activity of representative compounds of the invention was established by the Mouse Activity and Screen Test Procedure (MAST) described below.
(§2) Nine unfasted Swiss-Webster male mice weighing 20-30 g are equally divided into three groups for each drug dose to be tested. That is, data for each dose level was generated by three separate groups of three mice each.
(§3) A minimum of three dose levels (10, 30, and 100 mg/kg) are tested for each drug. Treatments are administered intraperitoneally one hour prior to testing. All dosages are calculated as parent compound and given in volumes of 10 ml/kg. Compounds are dissolved or suspended in 0.2% Methocel. Control animals are injected with Methocel.
(§4) Testing: A two part testing procedure is started one hour postinjection. First, the screen test (ST) is performed (see Pharmac. Biochem. Behav. 6, 351-353, 1977). Briefly this test consists of placing mice on individual wire screens which are then rotated 180 degrees at the start of a 60 second observation period. The number of mice falling off the inverted screen is recorded.
(§5) Data: The data obtained from the screen test are expressed as percent of mice falling off the screen. Data derived from locomotor activity of drug treated mice are compared to the activity of vehicle treated animals and are expressed as percent inhibition of spontaneous locomotion. All percentages reported for inhibition of locomotion (LI) are based upon data accumulated for one hour. Both phases of testing are graded: A=60-100%; C=31-59%; and N=0-30%. An overall dose rating is obtained by the following criteria:
(§6) LAD refers to the lowest dose at which an A rating is achieved. […] Utilizing this procedure, an overall dose rating of A was obtained for the noted compound at the indicated dose. The compounds are identified in the Examples.

Data set [2] in a line: Mouse Activity and Screen Test Procedure (MAST): inhibition of spontaneous locomotion (actophotometer) and overall dose rating. The class given is in vivo, mouse (Swiss-Webster, male). Particulars: IP.
Description: as §1, §2, §3, §4
Immediately following the screen test, the final phase of testing is initiated by placing each group of three mice in one actophotometer (Life Sciences, 22, 1067-1076, 1978). The actophotometer consists of a cylindrical chamber whose center is occupied by another cylinder which contains the illumination for six photocells located on the perimeter of the chamber. Six light-beam interruptions equal one count. Locomotor activity is recorded by computer at ten minute intervals for 60 minutes.
as §5, §6

A short description of data set [3]: Mouse Activity and Screen Test Procedure (MAST): screen test (mice falling off inverted screen). Format: in vivo, mouse (Swiss-Webster, male). To be noted: PO.
The nature of data set [4]: Mouse Activity and Screen Test Procedure (MAST): inhibition of spontaneous locomotion (actophotometer) and overall dose rating. The class given is in vivo, mouse (Swiss-Webster, male). To be noted: PO.

For the compound `OC[C@H]1O[C@@H](n2cnc3c(NCCc4csc5ccccc45)ncnc32)[C@H](O)[C@@H]1O` [Example 2, N-[2-(benzo[b]thien-3-yl)ethyl]adenosine], the IC50 at adenosine A2 receptor amounted to 303 nM; at adenosine A1 receptor it was 12 nM. Moreover, the figures for the “Screen Test Failure” value in data set [1] (3 mg/kg), in data set [1] (10 mg/kg) and in data set [1] (30 mg/kg) were 0%, 11% and 0%, respectively. Besides, the “Inhibition of Mouse Locomotion Activity” value in data set [2] (3 mg/kg) is reported as 21%; in data set [2] (10 mg/kg), 30%; in data set [2] (30 mg/kg), 63%.
As to `COc1ccc2c(CCNc3ncnc4c3ncn4[C@@H]3O[C@H](CO)[C@@H](O)[C@H]3O)csc2c1` [Example 1, N-[2-(6-methoxybenzo[b]thien-3-yl)ethyl]adenosine], the IC50 at adenosine A2 receptor turned out to be 343 nM; at adenosine A1 receptor it was 7.7 nM. Besides, the “Screen Test Failure” value in data set [1] (3 mg/kg) turned out to be 0%; in data set [1] (10 mg/kg) it was 11%; in data set [1] (30 mg/kg) it was 11%; in data set [3] (3 mg/kg), 17%; in data set [3] (10 mg/kg) it was 0%; in data set [3] (30 mg/kg), 44%. Moreover, the “Inhibition of Mouse Locomotion Activity” value in data set [4] (3 mg/kg) stood at 12%; in data set [4] (10 mg/kg) it was 42%; in data set [4] (30 mg/kg), 84%; in data set [2] (3 mg/kg), 23%; in data set [2] (10 mg/kg), 48%; in data set [2] (30 mg/kg) it was 92%.
`OC[C@H]1O[C@@H](n2cnc3c(NCCc4csc5ccc(Cl)cc45)ncnc32)[C@H](O)[C@@H]1O` [Example 3, N-[2-(5-chlorobenzo[b]thien-3-yl)ethyl]adenosine]: the IC50 at adenosine A2 receptor turned out to be 549 nM; at adenosine A1 receptor, 4.5 nM. Moreover, the “Screen Test Failure” value in data set [1] (3 mg/kg), in data set [1] (10 mg/kg) and in data set [1] (30 mg/kg) was 0% throughout. Besides, the “Inhibition of Mouse Locomotion Activity” value in data set [2] (3 mg/kg) amounted to 27%; in data set [2] (10 mg/kg), 54%; in data set [2] (30 mg/kg) it was 86%.
In the case of `Cc1ccc2scc(CCNc3ncnc4c3ncn4[C@@H]3O[C@H](CO)[C@@H](O)[C@H]3O)c2c1` [Example 4, N-[2-(5-methylbenzo[b]thien-3-yl)ethyl]adenosine], the IC50 at adenosine A2 receptor was 413 nM; at adenosine A1 receptor, 4.3 nM. Also, the “Screen Test Failure” value in data set [1] (3 mg/kg), in data set [1] (10 mg/kg) and in data set [1] (30 mg/kg) was 0% throughout. Further, the “Inhibition of Mouse Locomotion Activity” value in data set [2] (3 mg/kg) is 48%; in data set [2] (10 mg/kg) it was 63%; in data set [2] (30 mg/kg), 89%.
